Patent US11766447B2, “3′3′-cyclic dinucleotide analogue comprising a cyclopentanyl modified nucleotide as sting modulator” (INSTITUTE OF ORGANIC CHEMISTRY AND BIOCHEMISTRY ASCR, V.V.I., priority 2019, dated 2023)

What was measured:
[1] = target: T1, AQ STING (G230A-R293Q) (Homo sapiens, UniProt Q86WV6, G230A/H232R/R293Q); experiment: Differential scanning fluorimetry (DSF) with AQ STING; format: binding; conditions: thermal shift vs apoprotein; 150 μM CDN; truncated human AQ STING 0.1 mg/ml
T1 construct: 8xHis (N, cleaved yes); SUMO (N, cleaved yes); made in house; host or cells: E. coli Rosetta-gami B (DE3)
Protocol: (§1) Purified PCR products were cleaved with restriction enzymes BamHI (cat. #R0136S, NEB, Ipswich, USA) and NotI (cat. #R0189S, NEB, Ipswich, USA) and cloned into the pSUMO vector linearized with the identical enzymes.
(§2) DNase I (cat. #D5025, Sigma Aldrich, Czech Republic) and RNase A (cat. #R6513, Sigma Aldrich, Czech Republic) were added (final concentration 50 μg/ml) together with MgCl2 (final concentration 5 mmol·l^−1) to the homogenate and bacteria were lysed using French Press G-M™ High-Pressure Cell Press Homogenizer (1500 psi, 3 cycles). […] The resin was poured into a chromatography column, washed with 50 ml buffer A (50 mmol·l^−1 TrisCl (pH 8.0), 800 mmol·l^−1 NaCl, 3 mmol·l^−1 β-mercaptoethanol; 10% glycerol; 20 mmol·l^−1 imidazol) and 8-His-SUMO tagged STING proteins were eluted with 15 ml buffer A containing 300 mmol·l^−1 imidazole. […] Proteins were concentrated with Amicon® Ultra-15 10 K device (cat. #UFC901008, Merck Millipore, Billerica, USA) and flash frozen in liquid N2.
(§3) 20 μL solutions of the reaction mixtures were pipetted in triplicates into 96 well optical reaction plates and thermal denaturation of samples were performed on real time PCR cycler (LightCycler® 480 Instrument II—Roche, Basel, Switzerland). The first derivative of the thermal denaturation curves was performed to calculate denaturing temperatures of STING-CDN complexes and STING apoproteins. The thermal shift for each CDN was calculated by subtracting the average denaturing temperature of STING apoprotein from the average denaturing temperature of STING CDN complex.

[2] = target: T2, WT STING (Homo sapiens, UniProt Q86WV6, H232R); experiment: Differential scanning fluorimetry (DSF) with WT STING; format: binding; set-up: 8xHis (N, cleaved yes); SUMO (N, cleaved yes); made in house; host or cells: E. coli Rosetta-gami B (DE3); conditions: thermal shift vs apoprotein; 150 μM CDN; truncated human WT STING 0.1 mg/ml
Protocol: as §1, §2, §3
Target sequence in this assay (Q86WV6 140-343 H232R): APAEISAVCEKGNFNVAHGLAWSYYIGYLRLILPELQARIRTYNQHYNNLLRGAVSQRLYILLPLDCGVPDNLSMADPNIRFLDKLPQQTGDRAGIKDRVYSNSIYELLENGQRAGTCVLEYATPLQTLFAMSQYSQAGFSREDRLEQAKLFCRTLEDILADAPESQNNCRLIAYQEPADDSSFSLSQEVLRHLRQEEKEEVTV

[3] = target: T2, WT STING; experiment: Digitonin assay using 293T wtSTING-FL reporter cells; format: cell-based; set-up: host or cells: 293T (ATCC CRL-3216), stably transfected, with 4xISRE firefly luciferase reporter; conditions: 293T wtSTING-FL cells, ISRE firefly luciferase; compounds in Digitonin buffer 30 minutes, then 5 hours; 8-point curve
From the text: Two complementary oligonucleotides of the sequence […] […] […] […] […] The oligonucleotides were mixed in equal molar amounts, hybridized, and cleaved by restriction endonucleases HindIII (cat. #. R0104S, NEB, Ipswich, USA) and BglII (cat. #R0144S, NEB, Ipswich, USA). Ultimately, they were ligated into plasmid pGL4.27 (cat. #E6651, Promega, Madison, USA) linearized with the same enzymes. As result the sequence with four ISRE sites was placed upstream of the minimum promoter of firefly luciferase reporter gene.
After 5 minutes incubation at room temperature (RT), 250 μL of the mixture was added dropwise to the cells in one well. Cells were incubated 36 hours at 37° C. with 5% CO2, and then detached with 0.05% Trypsin and 0.22 g/L EDTA (both cat. #L0941, Biowest, Riverside, USA).
Transfected cells were seeded onto poly-D-lysine coated six well plates at density 50,000 cells per 1 cm^2 in DMEM medium with high glucose containing 10% heat inactivated FBS, 30 μg/mL blasticidin (cat. #ant-b1-05, InvivoGen, San Diego, USA), 0.06 mg/ml Penicillin G and 0.1 mg/ml Streptomycin Sulfate (both cat. #. L0018, Biowest, Riverside, USA). The medium was replenished every 3-4 days until visible colonies of cells resistant to blasticidin were formed.
Blasticidin resistant cells stably expressing WT STING were further transfected with […] plasmid following the same procedure as described above. […] Homogeneous culture of stably double transfected cells was prepared by limiting dilution of cells in 96 well plates and wells with cells were selected that originated from a single cell.
The medium was removed next day and three fold serial dilutions of compounds in Digitonin buffer containing 50 mmol·l^−1 HEPES (cat. #H3375, Sigma Aldrich, Czech Republic) pH 7.0, 100 mmol·l^−1 KCl, 3 mmol·l^−1 MgCl2, 0.1 mmol·l^−1 DTT (cat. #D0632, Sigma Aldrich, Czech Republic), 85 mmol·l^−1 Sucrose (cat. #S7903, Sigma Aldrich, Czech Republic), 0.2% BSA (cat. #A2153, Sigma Aldrich, Czech Republic), 1 mmol·l^−1 ATP (cat. #A1852, Sigma Aldrich, Czech Republic), 0.1 mmol·l^−1 GTP (cat. #G8877, Sigma Aldrich, Czech Republic), and 10 μg/mL Digitonin A (cat. #D141, Sigma Aldrich, Czech Republic) were added to the cells. The buffer was removed after 30 minutes incubation at 37° C. with 5% CO2, the cells were washed once with 100 μl of cultivation medium, and 100 μl of medium was added to each well. The plates with cells were incubated for 5 hours at 37° C. with 5% CO2, 50 μl of the medium was removed and 30 μl of ONE-Glo™ Luciferase Assay System reagent (cat. #E6120, Promega, Madison, USA) was added to each well. Luminescence was read on Synergy H1 (Biotek, Winooski, USA). GraphPad Prism (La Jolla, USA) was used to calculate the 50% effective concentration ([…] from an 8-point dose-response curve.
Target sequence in this assay (Q86WV6 whole entry H232R, the tested form may be a part): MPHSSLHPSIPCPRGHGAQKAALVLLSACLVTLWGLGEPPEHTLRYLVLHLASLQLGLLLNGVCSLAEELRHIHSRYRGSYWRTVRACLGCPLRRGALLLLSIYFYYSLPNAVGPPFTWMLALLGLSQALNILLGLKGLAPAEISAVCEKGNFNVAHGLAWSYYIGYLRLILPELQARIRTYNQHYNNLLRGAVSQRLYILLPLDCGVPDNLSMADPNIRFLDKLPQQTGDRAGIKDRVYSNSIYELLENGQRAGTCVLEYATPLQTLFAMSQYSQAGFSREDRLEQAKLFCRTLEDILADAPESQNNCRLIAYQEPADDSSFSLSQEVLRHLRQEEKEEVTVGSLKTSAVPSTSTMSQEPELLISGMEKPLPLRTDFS

T1 sequence (Q86WV6 140-343 G230A/H232R/R293Q): as the sequence (Q86WV6 140-343 H232R) above, with G91A, R154Q counted along it

Compound: Nc1ncnc2c1ncn2[C@@H]1C[C@@H]2COP(=O)(O)O[C@H]3[C@@H](F)[C@H](n4cnc5c(N)ncnc54)O[C@@H]3COP(=O)(O)O[C@H]2[C@@H]1F [Compound 127, (1R,6R,8R,9R,10R,15R,17R,18R)-8,17-bis(6-amino-9H-purin-9-yl)-9,18-difluoro-3,12-dihydroxy-2,4,7,11,13-pentaoxa-3λ^5,12λ^5-diphosphatricyclo[13.3.0.0^6,10]octadecane-3,12-dione]
- ΔTm at 150 µM [1]: 7.9 °C
- ΔTm at 150 µM [2]: 2.6 °C
- EC50 [3]: 100 nM

Compound: Nc1nc2c(ncn2[C@H]2CC3OP(=O)(O)OC[C@H]4O[C@@H](n5cnc6c(N)ncnc65)C(O)C4OP(=O)(O)OC[C@H]3C2)c(=O)[nH]1 (stereo partly drawn) [Compound 115, (6R,8R,15R,17R)-17-(2-amino-6-oxo-6,9-dihydro-1H-purin-9-yl)-8-(6-amino-9H-purin-9-yl)-3,9,12-trihydroxy-2,4,7,11,13-pentaoxa-3λ^5,12λ^5-diphosphatricyclo[13.3.0.0^6,10]octadecane-3,12-dione]
- ΔTm at 150 µM [1]: 10.5 °C
- ΔTm at 150 µM [2]: 3.8 °C
- EC50 [3]: 70 nM

Compound: Nc1ncnc2c1ncn2[C@@H]1O[C@@H]2COP(=O)(O)OC3C(O)[C@H](n4cnc5c(=O)[nH]cnc54)C[C@@H]3COP(=O)(O)OC2C1O (stereo partly drawn) [Compound 104, 9-((2R,3R,3a5,7aR,9R,10S,10aR,14aR)-2-(6-amino-9H-purin-9-yl)-3,5,10,12-tetrahydroxy-5,12-dioxidodecahydro-2H-cyclopenta[d]furo[3,2-j][1,3,7,9]tetraoxa[2,8]diphosphacyclododecin-9-yl)-1,9-dihydro-6H-purin-6-one]
- ΔTm at 150 µM [1]: 11.4 °C
- ΔTm at 150 µM [2]: 3.4 °C
- EC50 [3]: 200 nM

Compound: Nc1ncnc2c1ncn2[C@@H]1O[C@@H]2COP(=O)(O)O[C@H]3[C@@H](O)[C@H](n4cnc5c(N)ncnc54)O[C@@H]3COP(=O)(O)O[C@H]2[C@H]1O [3′3′c-di-AMP, reference compound]
- DSF ΔTm (° C.) AQ STING [1]: 9.3 °C
- DSF ΔTm (° C.) WT STING [2]: 2.6 °C
- EC50 [3]: 300 nM

Compound: Nc1nc2c(ncn2[C@@H]2C[C@@H]3COP(=O)(O)OC4C[C@H](n5cnc6c(N)ncnc65)O[C@@H]4COP(=O)(O)OC3C2O)c(=O)[nH]1 (stereo partly drawn) [Compound 106, 2-amino-9-((2R,3aS,7aR,9R,10S,10aR,14aR)-2-(6-amino-9H-purin-9-yl)-5,10,12-trihydroxy-5,12-dioxidodecahydro-2H-cyclopenta[d]furo[3,2-j][1,3,7,9]tetraoxa[2,8]diphosphacyclododecin-9-yl)-1,9-dihydro-6H-purin-6-one]
- ΔTm at 150 µM [1]: 9 °C
- ΔTm at 150 µM [2]: 1.9 °C
- EC50 [3]: 400 nM

Compound: COC1C2OP(=O)(O)OC[C@H]3C[C@@H](n4cnc5c(N)ncnc54)C(O)C3OP(=O)(O)OC[C@H]2O[C@H]1n1cnc2c(=O)[nH]c(N)nc21 (stereo partly drawn) [Compound 114, 2-amino-9-((2R,3R,3aR,7aR,9R,10S,10aR,14aR)-9-(6-amino-9H-purin-9-yl)-5,10,12-trihydroxy-3-methoxy-5,12-dioxidodecahydro-2H-cyclopenta[d]furo[3,2-j][1,3,7,9]tetraoxa[2,8]diphosphacyclododecin-2-yl)-1,9-dihydro-6H-purin-6-one]
- ΔTm at 150 µM [1]: 4.6 °C
- ΔTm at 150 µM [2]: 0.4 °C
- EC50 [3]: 21800 nM

Compound: Nc1ncnc2c1ncn2[C@@H]1C[C@@H]2COP(=O)(O)OC3C(F)[C@H](n4cnc5c(N)ncnc54)O[C@@H]3COP(=O)(S)OC2C1F (single isomer, unassigned) [Compound 141a]
- DSF ΔTm (° C.) AQ STING [1]: 3.9 °C
- DSF ΔTm (° C.) WT STING [2]: 0.3 °C
- EC50 [3]: 3000 nM

Compound: Nc1ncnc2c1ncn2[C@@H]1C[C@@H]2COP(=O)(O)OC3C(F)[C@H](n4cnc5c(N)ncnc54)O[C@@H]3COP(=O)(S)OC2C1F (single isomer, unassigned) [Compound 141b]
- DSF ΔTm (° C.) AQ STING [1]: 11.6 °C
- DSF ΔTm (° C.) WT STING [2]: 5.3 °C
- EC50 [3]: 50 nM

Compound: Nc1nc2c(ncn2[C@H]2CC3OP(=O)(S)OC[C@H]4O[C@@H](n5cnc6c(N)ncnc65)C(F)C4OP(=O)(S)OC[C@H]3C2)c(=O)[nH]1 (single isomer, unassigned) [Compound 129a]
- ΔTm at 150 µM [1]: 14 °C
- ΔTm at 150 µM [2]: 6.4 °C
- EC50 [3]: 100 nM
